From patent publication US11013732B2, “Use of macroazapyridinophanes metal complexes in the treatment of diseases” (BIONOS BIOTECH, S.L, priority 2017, dated 2021)

Tested on: Caenorhabditis elegans expressing 110Q::TdTomato in mechanosensory neurons
Test: Gentle touch sensitivity in C. elegans' Huntington's disease model expressing 110Q::TdTomato
Assay type: in vivo
Conditions: 110Q::TdTomato animals without metal complex (II)
Experimental: The study was conducted to assess whether administration of metal complex (II) improves the neurosensitivity (gentle touch sensitivity) in Caenorhabditis elegans' (C. elegans) Huntington's disease model.
The initial and most generally used method to test for gentle touch sensitivity is to stroke animals with an eyebrow hair that has been glued to the end of a toothpick (FIG. 4).
C. elegans expressing 110CAG fused in frame with TdTomato in mechanosensory neurons aggregate and induced neural impairment were used. […] The tissue in light grey is the marker for transgenesis (i.e. green fluorescent protein (GFP) expressed in the pharynx).
The test was carried out using non-treated animals (expressing 110Q::TdTomato and thus showing neuronal impairment) as a control C, and animals treated with Metformin at 2 mM were used as a positive control. Each test was carried out treating animals (expressing 110Q::TdTomato showing neuronal impairment) with 5, 10 and 20 μM concentrations of metal complex (II), using non-treated animals as a control and animals treated with Metformin at a concentration of 2 mM as a positive control.
Finally, it was tested whether the rescue of the neuronal impairment due to 110Q::TdTomato expression shown with the treatment of metal complex (II) is produced by activation of autophagy. […]

CCN(CC)CCCC(C)Nc1ccnc2cc(Cl)ccc12 (stereo not shown) [Chloroquine, reference compound]
% of individuals showing touch response, chloroquine alone: does not induce additional touch response impairment
